{"source": "ChEMBL document CHEMBL4765411", "about": "“Discovery of 2-(2-aminobenzo[d]thiazol-6-yl) benzo[d]oxazol-5-amine derivatives that regulated HPV relevant cellular pathway and prevented cervical cancer from abnormal proliferation” (Eur J Med Chem, 2020)", "key": {"HeLa [1]": {"tested_on": "HeLa", "test": "Antiproliferative activity against human HeLa cells assessed as growth inhibition at 20 uM viability after 72 hrs by SRB assay relative to control", "type": "functional", "details": "read-out: GI"}, "HeLa [2]": {"tested_on": "HeLa", "test": "Antiproliferative activity against human HeLa cells assessed as growth inhibition at 1 uM viability after 72 hrs by SRB assay relative to control", "type": "functional", "details": "read-out: GI"}, "HeLa [3]": {"tested_on": "HeLa", "test": "Antiproliferative activity against human HeLa cells assessed as reduction in cell viability after 72 hrs by SRB assay", "type": "functional, cell-based"}}}
{"compound": "Nc1ccc2oc(-c3ccccc3F)nc2c1", "values": [{"measurement": "inhibition of growth at 20 µM", "setting": "HeLa [1]", "value": 42.4, "unit": "%"}]}
{"compound": "Nc1cccc(-c2nc3ccccc3[nH]2)c1", "values": [{"measurement": "inhibition of growth at 20 µM", "setting": "HeLa [1]", "value": 0, "unit": "%"}]}
{"compound": "O=S(=O)(O)c1nc2ccccc2s1", "values": [{"measurement": "inhibition of growth at 20 µM", "setting": "HeLa [1]", "value": 25, "unit": "%"}]}
{"compound": "Nc1nc2cccc(Cl)c2s1", "values": [{"measurement": "inhibition of growth at 20 µM", "setting": "HeLa [1]", "value": 5.3, "unit": "%"}]}
{"compound": "Cc1nc(-c2nc3ccccc3s2)n[nH]1", "values": [{"measurement": "inhibition of growth at 20 µM", "setting": "HeLa [1]", "value": 6.6, "unit": "%"}]}
{"compound": "Nc1ccc(-c2nc3ccccc3[nH]2)c(N)c1", "values": [{"measurement": "inhibition of growth at 20 µM", "setting": "HeLa [1]", "value": 0.2, "unit": "%"}]}
{"compound": "O=C(Nc1nc2ccccc2s1)c1c(Cl)cccc1Cl", "values": [{"measurement": "inhibition of growth at 20 µM", "setting": "HeLa [1]", "value": 3.5, "unit": "%"}]}
{"compound": "Nc1nc2ccc([N+](=O)[O-])cc2s1", "values": [{"measurement": "inhibition of growth at 20 µM", "setting": "HeLa [1]", "value": 6, "unit": "%"}]}
{"compound": "Nc1ccc(-c2nc3ccccc3o2)cc1", "values": [{"measurement": "inhibition of growth at 20 µM", "setting": "HeLa [1]", "value": 19.3, "unit": "%"}]}
{"compound": "Brc1ccc(-c2nc3ccccc3s2)cc1", "values": [{"measurement": "inhibition of growth at 20 µM", "setting": "HeLa [1]", "value": 5.5, "unit": "%"}]}
{"compound": "Nc1ccc2nc(N)sc2c1", "values": [{"measurement": "inhibition of growth at 20 µM", "setting": "HeLa [1]", "value": 6.9, "unit": "%"}]}
{"compound": "Clc1ccccc1-c1nc2ccccc2s1", "values": [{"measurement": "inhibition of growth at 20 µM", "setting": "HeLa [1]", "value": 4.9, "unit": "%"}]}
{"compound": "Nc1ccc(-c2nc3cc(N)ccc3o2)cc1", "values": [{"measurement": "inhibition of growth at 20 µM", "setting": "HeLa [1]", "value": 1.2, "unit": "%"}]}
{"compound": "Nc1ccc2oc(-c3ccc(Cl)cc3Cl)nc2c1", "values": [{"measurement": "inhibition of growth at 20 µM", "setting": "HeLa [1]", "value": 6, "unit": "%"}]}
{"compound": "Nc1nc2c(Br)cccc2s1", "values": [{"measurement": "inhibition of growth at 20 µM", "setting": "HeLa [1]", "value": 1.7, "unit": "%"}]}
{"compound": "c1ccc(-c2nc3ccccc3s2)cc1", "note": "[2-PHENYLBENZO[D]THIAZOLE]", "values": [{"measurement": "inhibition of growth at 20 µM", "setting": "HeLa [1]", "value": 2.6, "unit": "%"}]}
{"compound": "COc1ccc(-c2nc3cc(N)ccc3o2)cc1OC", "values": [{"measurement": "inhibition of growth at 20 µM", "setting": "HeLa [1]", "value": 2.3, "unit": "%"}]}
{"compound": "Nc1ccc2nn(-c3ccccc3)nc2c1", "values": [{"measurement": "inhibition of growth at 20 µM", "setting": "HeLa [1]", "value": 53, "unit": "%"}]}
{"compound": "Nc1ccc(-c2nc3cc(N)ccc3[nH]2)cc1", "values": [{"measurement": "inhibition of growth at 20 µM", "setting": "HeLa [1]", "value": 4, "unit": "%"}]}
{"compound": "Oc1ccccc1-c1nc2ccccc2s1", "values": [{"measurement": "inhibition of growth at 20 µM", "setting": "HeLa [1]", "value": 8.1, "unit": "%"}]}
{"compound": "CCNC(=O)Nc1ccc2oc(-c3ccc4nc(N)sc4c3)nc2c1", "values": [{"measurement": "inhibition of growth at 1 µM", "setting": "HeLa [2]", "value": 0.7, "unit": "%"}, {"measurement": "inhibition of growth at 20 µM", "setting": "HeLa [1]", "value": 6.8, "unit": "%"}]}
{"compound": "O=C(Nc1nc2ccccc2s1)c1cccnc1Cl", "values": [{"measurement": "inhibition of growth at 20 µM", "setting": "HeLa [1]", "value": 5.5, "unit": "%"}]}
{"compound": "Brc1cccc(-c2nc3ccccc3s2)c1", "values": [{"measurement": "inhibition of growth at 20 µM", "setting": "HeLa [1]", "value": 2.6, "unit": "%"}]}
{"compound": "Nc1nc2ccc(-c3nc4ccccc4s3)cc2s1", "values": [{"measurement": "inhibition of growth at 20 µM", "setting": "HeLa [1]", "value": 47.8, "unit": "%"}]}
{"compound": "CCOc1ccc(-c2nc3cc(N)ccc3o2)cc1", "values": [{"measurement": "inhibition of growth at 20 µM", "setting": "HeLa [1]", "value": 5.8, "unit": "%"}]}
{"compound": "Nc1nc2ccc(-c3nc4ccccc4o3)cc2s1", "values": [{"measurement": "inhibition of growth at 1 µM", "setting": "HeLa [2]", "value": 59.6, "unit": "%"}, {"measurement": "IC50", "setting": "HeLa [3]", "value": 820, "unit": "nM"}, {"measurement": "inhibition of growth at 20 µM", "setting": "HeLa [1]", "value": 67.2, "unit": "%"}]}
{"compound": "CC[n+]1ccccc1-c1nc2ccccc2s1", "values": [{"measurement": "inhibition of growth at 20 µM", "setting": "HeLa [1]", "value": 2.1, "unit": "%"}]}
{"compound": "Oc1c(Br)cc(Br)cc1-c1nc2ccccc2s1", "values": [{"measurement": "inhibition of growth at 20 µM", "setting": "HeLa [1]", "value": 4, "unit": "%"}]}
{"compound": "Nc1ccc2oc(-c3ccccc3)nc2c1", "values": [{"measurement": "inhibition of growth at 20 µM", "setting": "HeLa [1]", "value": -2.3, "unit": "%"}]}
{"compound": "c1cncc(-c2nc3ccccc3s2)c1", "values": [{"measurement": "inhibition of growth at 20 µM", "setting": "HeLa [1]", "value": 4.4, "unit": "%"}]}
